Test results published in article PMC9235088, “Characterization of a new L-carnosine synthase mined from deep-sea sediment metagenome” (Microbial Cell Factories, 2022).

System: T1, gene_236976 product (L-carnosine synthase, L-aminopeptidase)
T1 construct: codon-optimised synthetic gene in pET-26b (NcoI/XhoI), his6-tagged, E. coli BL21(DE3), Ni-agarose purified
Assay: HPLC of L-carnosine formed, Michaelis-Menten fit
Format: biochemical, metagenome: deep-sea sediment
Details: 100 mM β-AlaOMe, 0-400 mM L-histidine; assay buffer Na2CO3/NaHCO3 pH 10.0, 30 °C; read-out: L-histidine^b / Km
Description: HPLC of L-carnosine formed, Michaelis-Menten fit on gene_236976 product (L-carnosine synthase, L-aminopeptidase)

Km: 7.73 ± 0.29 mM
Structure (SMILES): N[C@@H](Cc1cnc[nH]1)C(=O)O [L-histidine]
